Test results as given in patent US10857136B2, “Compounds for use in the prevention and/or treatment of non-alcoholic fat liver disease and non-alcoholic steatohepatitis” (SJT MOLECULAR RESEARCH, SL, priority 2017, dated 2020).

Key:
Type in all cases: in vivo
[1] = tested on: DIO-NASH mice (C57Bl/6J male mice); assay: Differential gene expression analysis by RNAseq in liver of DIO-NASH mice
Method: The effect of the compounds of the invention in the development of liver fibrosis was also studied by differential gene expression analysis by RNAseq where DIO-NASH mice (C57Bl/6J male mice) were treated with a hydrochloride salt of compound 4a during 8 weeks (50 mg/kg, p.o., b.i.d.), versus a pathological control of DIO-NASH mice and a non-pathological control LEAN-CHOW mice, both treated with the vehicle (0.9% NaCl).
The animals were kept and examined under the same conditions were used as in example 2.2. The liver biopsies were also carried out under the same conditions as in example 2.2. The DIO-NASH mice group were put on high fat diet (40% AMLN diet, D09100301 Research Diets, USA) and a control group (LEAN-CHOW) was put on a regular chow diet (Altromin 1324, Brogaarden, Denmark) for 35 weeks prior to the study.
FIGS. 12 and 13 show the effect of treatment of DIO-NASH mice with a hydrochloride salt of compound 4a versus a control DIO-NASH mice group treated with vehicle and a LEAN-CHOW […] control group also treated with vehicle, in the expression of collagen genes which are fibrosis markers: collagen type I-alpha 1 (COL1A1) and alpha 2 (COL1A2), collagen type III alpha 1 (COL3A1), collagen V alpha 1 (COL5A1), alpha 2 (COL5A2) and alpha 3 (COL5A3), collagen type VI alpha 1 (COL6A1), alpha 2 (COL6A2) and alpha 3 (COL6A3).
Results are given as expression level in RPKM for each mice group, wherein RPKM (Reads per kilo base per million mapped reads) is a method of quantifying gene expression from RNA sequencing data by normalizing for […] and the number of sequencing reads.
Date expressed as mean±s.e.m. values from 6 animals. ***P<0.001 vs. NASH vehicle.

[2] = tested on: DIO-NASH mice (C57Bl/6J male mice); assay: Triglycerides and cholesterol liver content, 8 weeks assay in DIO-NASH mice; conditions: 50 mg/kg, p.o., b.i.d., vs DIO-NASH vehicle
Description: The DIO-NASH mouse model is fed a high fat diet that results on non-alcoholic fat liver disease and are based on C57Bl/6J mice put on a 40% high fat diet prior to the assays. For the assessment of effect of the compounds of the invention in liver lipid content in non-alcoholic fat liver disease, 34 C57Bl/6J male mice (5-week-old at delivery), obtained from Janvier, France, were used. The DIO-NASH mice group were put on high fat diet (40% AMLN diet, D09100301 Research Diets, USA) and a control group (LEAN-CHOW) was put on a regular chow diet (Altromin 1324, Brogaarden, Denmark) for 35 weeks prior to the study.
To assess the effect of compound 4a on hepatic triglyceride or cholesterol content in animals with non-alcoholic fat liver disease, DIO-NASH mice (C57Bl/6J male mice) were treated with a hydrochloride salt of compound 4a during 8 weeks (50 mg/kg, p.o., b.i.d.), versus a pathological control of DIO-NASH mice and a non-pathological control LEAN-CHOW mice, both treated with the vehicle (0.9% NaCl). […]
The triglyceride content in liver was determined using the Triglyceride reagent (Cat. no. 22-045-795, Roche Diagnostics, Germany) on a Cobas™ C-501 autoanalyzer. Homogenized liver tissue was heated to 80-100° C. twice, centrifuged in a microcentrifuge and the triglyceride content was measured in the supernatant.

[3] = tested on: DIO-NASH mice (C57Bl/6J male mice); assay: Liver fibrosis: collagen type I (col1a1) IHC staining in DIO-NASH mice; conditions: 50 mg/kg, p.o., b.i.d., 8 weeks
Method: To assess the effect of the compounds of the invention in fibrosis of liver in the treatment of non-alcoholic fat liver disease, the collagen type I (a fibrosis marker) in liver was measured after the 8 weeks of the study where DIO-NASH mice (C57Bl/6J male mice) were treated with a hydrochloride salt of compound 4a during 8 weeks (50 mg/kg, p.o., b.i.d.), versus a pathological control of DIO-NASH mice and a non-pathological control LEAN-CHOW mice, both treated with the vehicle (0.9% NaCl).
Type I collagen content was measured by IHC staining: Type I collagen (Southern Biotech, Cat. 1310-01) IHC was performed using standard procedures. Briefly, after antigen retrieval and blocking of endogenous peroxidase activity, liver slides were incubated with primary antibody. The primary antibody was detected using biotinylated secondary antibody and amplified using a vectastain-TSA-vectastain method a polymeric HRP-linker antibody conjugate. Next, the primary antibody was visualized with DAB as chromogen. Finally, sections were counterstained in hematoxylin and cover-slipped.

## COc1ccc(-c2nc(C(=O)NCCN)cc3c2[nH]c2ccccc23)cc1 [Compound 4a, N(-ethylamine)-1-benzosubstituted-β-carboline-3-carboxamide]
[1]; 50 mg p.o., b.i.d, 8 weeks
  expression of CD36 (lipid metabolism): decreased expression
  expression of Casp7 and IL18 (hepatocellular cell death): increased expression
  expression of GLUT4 (insulin signaling): increased expression
  expression of MAPK and AKT (insulin signaling): decreased expression
  expression of SQLE (lipid metabolism): increased expression
  fibrosis genes related to stellate cell activation, such as Col1a1, Col3a1 and TIMP1: reduction
  inflammation markers related to monocyte recruitment, such as CD68, CCR2, MAC-2: reduction
[1]; 50 mg/kg, p.o., b.i.d., 8 weeks
  TLR4, TGFB and TGFBR gene expression (inflammation signaling): reduction
[1]; 50 mg/kg, p.o., b.i.d., 8 weeks, vs DIO-NASH vehicle, P<0.001
  expression of collagen genes (COL1A1, COL1A2, COL3A1, COL5A1, COL5A2, COL5A3, COL6A1, COL6A2, COL6A3): significantly reduced the expression of the collagen genes
[1]; 8 weeks treatment, RNAseq
  number of genes regulated: more than 2000 genes
[2]
  liver cholesterol levels: reduced liver cholesterol levels
  liver triglyceride levels: reduced liver triglyceride levels
[3]; end of study
  anti-type I collagen (col1a1) staining, representative images of liver samples: visible change in this fibrosis marker
[3]; vs DIO-NASH vehicle
  total content of liver collagen type 1 (col1a1) determined by morphometry: reduced total liver col1a1
